According to patent US11241436B2, “Autophagy inducers for treatment of CNS conditions” (Northwestern University, priority 2017, dated 2022):

Key:
Aβ42 = test: Dot blot assay of Aβ42 in brain of 5XFAD mice; assay type: in vivo, mouse
Experimental: Total protein loading was labeled by Ponceau S. N=5. **, P<0.01, t test.
Total protein loading was labeled by Ponceau S. Triplicate experiments from 4-5 mice in each group were shown. Results represent mean±s.e.m. NS, not significant; *, P<0.05; **, P<0.01; ***, P<0.001, t test.
Total protein loading was labeled by Ponceau S. Triplicate experiments from 4 mice in each group were shown.
Dot blot assay. Snap frozen hemi-brain were homogenized in 800 μl phosphate-buffered saline (PBS; Sigma-Aldrich, D8537) with 1% Triton X-100 supplemented with halt proteinase inhibitor cocktail (ThermoFisher Scientific), and halt phosphatase inhibitor cocktail (ThermoFisher Scientific). Protein concentration was quantified using BCA Assay (Pierce). For Af342 dot blots, 10 mg/ml brain homogenates were extracted in guanidine buffer (5 M guanidine-HCl [GuHCl], 50 mM Tris HCl pH 8.0) overnight at room temperature. One μl of sample was spotted in triplicate on 0.2 μm nitrocellulose membrane, and dried for 1 h at 37° C. The membrane was stained with Ponceau S, and the dot blot signal on the membrane was detected by immunostaining with Aβ42 antibody (Invitrogen, 700254, 1:1000) and HRP-conjugated secondary antibody (Santa Cruz Biotechnology, sc2004, 1:2000). Aβ42 signals were normalized to the Ponceau S staining. To separate soluble and insoluble Aβ fractions, 10 mg/ml of the total homogenated brains were centrifuged at 14000 rpm, 4° C. for 30 min. The supernatant (soluble fraction) was used directly for dot blot assays. The pellet (insoluble fraction) was extracted in guanidine buffer overnight at room temperature, and used in dot blot analyses. […] One μl of each sample was spotted on nitrocellulose membrane for dot blot analysis.

CB1R signaling = CB1R signaling in brain (phosphorylation of MEK and JNK) after chronic WIN; assay type: in vivo, mouse; conditions: repeated WIN dosage 14 d, then acute WIN 1 h
Experimental: WT mice were treated with either daily WIN or vehicle for 14 d, and then subject to an acute dosage of WIN 1 h prior to collection of brain samples.
To investigate whether restoration of CB1R signaling underlies the behavioral regulation by autophagy activation, the level and functionality of CB1R in mouse brain after co-administration of chronic cannabinoids and autophagy inducers were analyzed. […] To determine whether the increased level of CB1R represents CB1R re-sensitization in the brain, the agonist-induced phosphorylation of signaling kinases downstream of CB1R after chronic WIN exposure were analyzed.

LC3 and p62/SQSTM1 = test: Western blot detection of LC3 and p62/SQSTM1 in mouse tissues; assay type: in vivo; conditions: for LC3-II conversion / levels of p62 (SQSTM1): mouse brain
Experimental: WAT, white adipose tissue; BAT, brown adipose tissue.
Autophagy analyses. For assessment of autophagy in vivo, 8-week old male WT and Becn 1FA/FA mice crossed to GFP-LC3 mice were exercised for 90 minutes, or starved for 48 h, and then anaesthetized by isoflurane and perfused with 4% PFA Brain and muscle samples were fixed in 4% PFA overnight, 15% sucrose for 4 h and 30% sucrose overnight before frozen sections were prepared. The number of GFP-LC3 puncta per unit area of tissue was quantified by fluorescence microscopy. Autophagy in vivo was also analyzed by western blot analysis of brain tissue extracts with antibodies against LC3 and p62/SQSTM1 (see below for details).
(§1) Western blot analyses. Cell or mouse muscle and brain extracts were prepared in lysis buffer containing 50 mM Tris (pH 7.4), 150 mM NaCl, 1 mM EDTA, 1% Triton X-100, halt proteinase inhibitor cocktail (ThermoFisher Scientific) and halt phosphatase inhibitor cocktail (ThermoFisher Scientific), and subjected to western blot analysis with anti-LC3 (Novus Biologicals, NB100-2220), anti-SQSTM 1 (Abnova, H00008878-M01), anti-Af342 (Invitrogen; 700254), anti-APP (Biolegend; 803001), HRP-conjugated GFP antibody (Santa Cruz Biotechnology, sc9996), anti-HA (Cell Signaling Technology, C29F4), anti-ATG7 (Sigma Aldrich; A2856), anti-LDLR (Abeam, ab52818), anti-LRP 1 (Abeam, ab92544), and anti-ACTB/f3-actin-HRP (Santa Cruz Biotechnology, sc47778 HRP) antibodies. The band intensity was analyzed using the ImageJ software.

[1] = tested on: HTT65Q and HTT103Q aggregates; test: Filter trap assay of polyQ HTT aggregates in HeLa cells; assay type: cell-based
Experimental: Cells were transfected with nontargeting control (NC) or ATG7 siRNA 24 h prior to Rg2 treatment for another 24 h. HTT aggregates were analyzed by lysate filtration through 0.2 μm nitrocellulose membrane. Cells treated with tetracycline served as negative control.
ML246 promotes the removal of intracellular aggregates formed by polyglutamine (polyQ)-expansion proteins. HeLa cell lines stably expressing tetracycline-repressible expanded polyQ-repeat protein HTT (huntingtin) was used as a model, HTT65Q and HTT103Q. In contrast to the HTT protein with the normal number of glutamine repeats (HTT25Q), HTT65Q and HTT103Q formed insoluble polyQ aggregates larger than 0.2-μm diameter, which can be detected by filter trap assay. […] Fluorescence imaging further confirmed that ML246 administration decreased the number of cells positive for HTT aggregates, which is also in an ATG7-dependent manner (FIG. S6B).
Accordingly, whether Rg2 affects the clearance of proteinaceous inclusions in vitro was next determined, using HeLa cell lines expressing tetracycline-repressible expanded polyglutamine (polyQ)-repeat protein HTT (huntingtin), HTT65Q and HTT103Q. Unlike the HTT protein with the normal number of glutamine repeats (HTT25Q), HTT65Q and HTT103Q formed insoluble polyQ aggregates larger than 0.2-μm diameter, which were detected by filter trap assays (FIG. 5A).
Filter trap assay. HeLa cells stably expressing CFP-HTT25Q, CFP-HTT65Q and CFP-HTT103Q were treated with 100 ng/ml tetracycline (IBI Scientific, IB02200) for 48 h, or 0.5 μM ML246 for 24 h with control or ATG7 siRNA (GE Dharmacon ON-TARGETplus control or ATG7 SMARTpool siRNA) for 48 h. Cells were then collected and lysed in lysis buffer containing 0.5% NP-40 for 30 min at 4° C. After centrifugation, the pellet was digested with 0.5 mg/ml DNasel (in 20 mM Tris-Cl, pH 8.0) for 1 h at 37° C., and dissolved into lysates containing insoluble aggregates by 2% SDS, 50 mM DTT and 20 mM EDTA. The lysates were then added onto 0.2 μm nitrocellulose membrane that was pre-equilibrated with 2% SDS/TBS for 30 min, and were filtered through the membrane by gentle vacuum using the Bio-Dot SF microfiltration apparatus (Bio-Rad). The signal was detected by immunostaining with the HRP-conjugated GFP antibody (Santa Cruz Biotechnology, sc9996, 1:1000).

APP = test: Expression of the precursor APP in brain of 5XFAD mice; assay type: in vivo, mouse
Experimental: as §1

Hela cells = test: Western blot detection of LC3 and p62 in Hela cells; assay type: cell-based
Experimental: as §1

[2] = 6-month old 5XFAD mice, ML246 5 mg/kg i.p. for 5 weeks
[3] = liver, muscle, brain, heart, white and brown adipose tissue

| SMILES | insoluble Aβ42 in brain (Aβ42; [2]) | soluble Aβ42 in brain (Aβ42; [2]) | effect on brain Aβ42 (Aβ42; autophagy-deficient 5XFAD Becn1+/− KO mice, ML246 5 weeks) | CB1R (CNR1) signaling: phosphorylation of MEK and JNK (CB1R signaling) | LC3-II conversion (LC3 and p62/SQSTM1) | levels of p62 (SQSTM1) (LC3 and p62/SQSTM1) | accumulation of HTT65Q and HTT103Q aggregates ([1]; 0.5 μM ML246, 24 h) | reduction of HTT65Q and HTT103Q aggregates ([1]; ML246 with knockdown of ATG7) | expression of the precursor APP (APP; ML246 for 5 weeks) | levels of p62 (SQSTM1) (Hela cells) | level of brain Aβ42 (Aβ42; Rg2 injection for 16 weeks in 2 month-old male 5XFAD mice vs vehicle (DMSO)) | LC3-I to LC3-II conversion (LC3 and p62/SQSTM1; [3]) | levels of SQSTM1 (LC3 and p62/SQSTM1; [3]) | accumulation of HTT65Q and HTT103Q aggregates ([1]; Rg2, 24 h) | effect on HTT aggregates ([1]; Rg2 with knockdown of ATG7) | expression of the precursor APP (APP; Rg2 for 16 weeks) |
| --- | --- | --- | --- | --- | --- | --- | --- | --- | --- | --- | --- | --- | --- | --- | --- | --- |
| N=c1c2c(-c3ccccc3)c(-c3ccccc3)n(Cc3ccccc3)c2ncn1[C@H]1CC[C@H](O)CC1 [ML246] | decreased levels | decreased levels | abolished | rescued | not detect significant changes | decreased | decreased | prevents this reduction | not affected | decreased | – | – | – | – | – | – |
| CC(C)=CCC[C@](C)(O)[C@H]1CC[C@]2(C)[C@@H]1[C@H](O)C[C@@H]1[C@@]3(C)CC[C@H](O)C(C)(C)[C@@H]3[C@@H](O[C@@H]3O[C@H](CO)[C@@H](O)[C@H](O)[C@H]3O[C@@H]3O[C@@H](C)[C@H](O)[C@@H](O)[C@H]3O)C[C@]12C [Rg2, ginsenoside Rg2] | – | – | – | rescued | not detect significant changes | decreased | – | – | – | decreased | effectively decreased | increased | decreased levels | decreased accumulation | abolished | remained unaffected |
